The nature of data set [1]: Acute toxicity test in mice. The data set is classed as in vivo. The conditions noted are these: intravenously administered to three mice at a dose of 50 mg/kg. As to the method:
The compound of Example 52 was intravenously administered to three mice at a dose of 50 mg/kg.

Another data set concerns the target GP IIb/IIIa (Homo sapiens, UniProt P05106+P08514). As to the kind of experiment: GP IIb/IIIa antagonistic activity (method of Pharmacological Test 2 in WO 94/21599). The data set is classed as binding. On the procedure: GP IIb/IIIa Antagonistic Activity and Human Platelet Aggregation Inhibitory Activity
GP IIb/IIIa antagonistic activity was measured for the compounds according to the present invention. The measurement of the GP IIb/IIIa antagonistic activity was carried out according to the method described in Pharmacological Test 2 in WO 94/21599.

Data set [2] relates to human vascular smooth muscle cells adhering to immobilized human vitronectin. Put plainly: Inhibitory activity against adhesion of human vascular smooth muscle cells to vitronectin. The conditions noted are these: 1.5 h; human vitronectin-coated plate, 90 min. The data set is classed as cell-based. On the procedure: Inhibitory Activity Against Adhesion of Human Vascular Smooth Muscle Cells to Vitronectin
The adhesion of human vascular smooth muscle cells =+to immobilized human vitronectin was measured in accordance with the method of Liaw et al. (Liaw L, Almeida M, Hart C E, Schwartz S M, and Giachelli C M, Circulation Research, 74 (2), 214-224 (1994)).
A Dulbecco's phosphate buffer (Dulbecco's PBS(−), Nissui Pharmaceutical Co., Ltd.) solution of human plasma-derived vitronectin (CALBIOCHEM) adjusted to a concentration of 4 μg/ml was first added to wells (50 μl/well) of a microplate (Maxisorp, Nunc), and a reaction for immobilization was allowed to proceed at 4° C. overnight. After washing twice with 150 μl of Dulbecco's phosphate buffer, a Dulbecco's phosphate buffer containing 10 mg/ml of bovine serum albumin (SIGMA) was added, followed by blocking at 37° C. for one hr. The assay plate was washed twice with 150 μl of Dulbecco's phosphate buffer.
Separately, human vascular smooth muscle cells cultivated at 37° C. under 5% carbon dioxide in a medium for vascular smooth muscle cells (Clonetics) were separated using a Dulbecco's phosphate buffer containing trypsin-EDTA (GIBCO BRL), washed with Dulbecco's phosphate buffer, and then suspended in a Dulbecco's modified Eagle's basal medium (Nissui Pharmaceutical Co., Ltd.) containing 0.1% bovine serum albumin to a concentration of 5×10^5/ml.
Next, 50 μl of a Dulbecco's modified Eagle's basal medium containing 10 mg/ml of bovine serum albumin with a medicament added thereto was added to the wells of the human vitronectin-coated assay microplate, followed by pre-cultivation under 5% carbon dioxide at 37° C. for 10 min. Thereafter, 50 μl of the medium with human vascular smooth muscle cells suspended therein was added thereto, and the plate was thoroughly stirred. A reaction was allowed to proceed under 5% carbon dioxide at 37° C. for 90 min. The reaction solution containing non-adherent cells were then removed, followed by washing three times with Dulbecco's phosphate buffer. For the adhered cells, 100 μl of a Dulbecco's phosphate buffer containing 4% paraformaldehyde (Wako Pure Chemical Industries, Ltd.) was added, and immobilization was allowed to proceed at room temperature for 10 min. Next, 100 μl of a Dulbecco's phosphate buffer containing 0.5% Toluidine Blue (Croma) and 4% paraformaldehyde was added, and staining was allowed to proceed at room temperature for 5 min, followed by thorough washing with distilled water. The inside of the wells was then air-dried, and a 1% aqueous sodium dodecylsulfate solution was then added to perform cytolysis. The absorbance of the microplate thus obtained was measured at 595 nm. […] The inhibition was calculated by the following equation. IC50 was determined from a primary regression line of the logarithm of each concentration of the test compound and the logarithm of (100−inhibition)/inhibition. [formula]

Chain of GP IIb/IIIa (P08514 32-887 limits assumed): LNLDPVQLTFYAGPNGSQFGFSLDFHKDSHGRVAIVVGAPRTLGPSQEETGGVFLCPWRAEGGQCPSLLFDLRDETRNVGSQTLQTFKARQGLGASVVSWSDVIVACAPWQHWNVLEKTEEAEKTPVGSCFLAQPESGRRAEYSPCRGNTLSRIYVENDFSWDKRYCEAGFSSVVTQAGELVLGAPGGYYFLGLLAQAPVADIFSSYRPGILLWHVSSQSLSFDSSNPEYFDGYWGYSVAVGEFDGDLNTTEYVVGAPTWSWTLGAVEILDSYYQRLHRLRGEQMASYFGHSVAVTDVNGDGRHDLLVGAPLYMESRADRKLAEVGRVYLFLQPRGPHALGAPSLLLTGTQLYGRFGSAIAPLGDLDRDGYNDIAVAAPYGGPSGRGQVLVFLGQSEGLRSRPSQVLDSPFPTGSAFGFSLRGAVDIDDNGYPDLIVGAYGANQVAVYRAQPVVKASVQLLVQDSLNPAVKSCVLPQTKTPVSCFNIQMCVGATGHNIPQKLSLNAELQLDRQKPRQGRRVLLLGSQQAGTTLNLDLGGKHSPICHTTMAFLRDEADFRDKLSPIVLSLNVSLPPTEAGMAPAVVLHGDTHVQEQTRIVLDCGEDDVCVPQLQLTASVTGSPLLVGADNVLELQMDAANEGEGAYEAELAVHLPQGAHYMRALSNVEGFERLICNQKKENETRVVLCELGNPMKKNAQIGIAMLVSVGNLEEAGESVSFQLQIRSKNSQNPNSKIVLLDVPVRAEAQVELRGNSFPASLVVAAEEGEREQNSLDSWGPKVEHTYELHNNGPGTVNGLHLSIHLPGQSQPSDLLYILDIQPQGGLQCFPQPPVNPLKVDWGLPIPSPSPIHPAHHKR
Chain of GP IIb/IIIa (P08514 891-1039 limits assumed): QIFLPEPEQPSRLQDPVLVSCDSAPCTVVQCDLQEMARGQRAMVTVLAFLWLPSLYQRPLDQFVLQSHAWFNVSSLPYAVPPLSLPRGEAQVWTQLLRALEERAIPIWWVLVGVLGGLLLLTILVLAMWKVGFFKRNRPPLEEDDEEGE
Chain of GP IIb/IIIa (P05106 27-788): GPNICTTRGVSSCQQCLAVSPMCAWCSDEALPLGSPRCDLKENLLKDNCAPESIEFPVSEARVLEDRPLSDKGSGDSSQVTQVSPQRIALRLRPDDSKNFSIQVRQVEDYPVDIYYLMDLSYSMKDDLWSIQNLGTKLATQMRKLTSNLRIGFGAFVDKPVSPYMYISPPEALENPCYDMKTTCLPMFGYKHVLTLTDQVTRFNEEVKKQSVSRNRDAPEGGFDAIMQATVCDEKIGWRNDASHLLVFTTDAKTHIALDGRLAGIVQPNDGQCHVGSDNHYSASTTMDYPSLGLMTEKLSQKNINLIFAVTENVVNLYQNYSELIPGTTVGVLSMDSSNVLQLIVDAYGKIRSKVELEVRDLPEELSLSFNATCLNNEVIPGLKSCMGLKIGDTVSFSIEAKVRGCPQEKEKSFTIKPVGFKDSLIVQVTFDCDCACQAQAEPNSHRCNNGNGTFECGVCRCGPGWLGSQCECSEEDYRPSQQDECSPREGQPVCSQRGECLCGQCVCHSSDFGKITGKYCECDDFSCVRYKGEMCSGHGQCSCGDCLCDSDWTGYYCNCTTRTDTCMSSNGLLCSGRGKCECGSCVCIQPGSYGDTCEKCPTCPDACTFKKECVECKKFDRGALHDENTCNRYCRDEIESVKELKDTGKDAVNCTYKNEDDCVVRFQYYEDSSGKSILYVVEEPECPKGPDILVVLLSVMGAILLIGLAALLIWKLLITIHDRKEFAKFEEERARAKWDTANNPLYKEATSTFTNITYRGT

As usually defined, the IC50 is the concentration at which inhibition is half-maximal. Higher therefore signals a need for much substance. For the compound `O=C(NC[C@H](NS(=O)(=O)c1ccccc1)C(=O)O)c1ccc(N2CCC(NC3=NCCCN3)CC2)c(F)c1` [Example 52, (2S)-Benzenesulfonylamino-3-[3-fluoro-4-{4-(1,4,5,6-tetrahydropyrimidin-2-ylamino)piperidin-1-yl}-benzoylamino]propionic acid], the “survival in acute toxicity test” value in data set [1] was “all the mice survived”. Besides, in data set [1] (compared with solvent group), the “change in weight in acute toxicity test” value is reported as “the same as a group of mice to which only a solvent had been administrered”. Also, the IC50 was at most 1 nM against GP IIb/IIIa and at most 70 nM in data set [2].

The record behind these values is patent US6420558B1, “Aminopiperidine derivates as integrin αvβ3 antagonists” (Meiji Seika Kaisha, Ltd., priority 1998, dated 2002).
